Numbers after ± are expanded uncertainties.
Assay: activity coefficient (dimensionless); of the first substance listed, at infinite dilution; xn = mol fraction of the nth substance listed
Details: 101 kPa, Liquid, Chromatography, x1 = 0

| Compound | activity coefficient (318.15 K) | activity coefficient (328.15 K) | activity coefficient (338.15 K) | activity coefficient (348.15 K) | activity coefficient (358.15 K) | activity coefficient (368.15 K) |
| --- | --- | --- | --- | --- | --- | --- |
| Cc1ccccc1C [1,2-dimethylbenzene] + COCC[N+]1(C)CCCCC1.O=S(=O)([N-]S(=O)(=O)C(F)(F)F)C(F)(F)F | 1.66 ± 0.11 | 1.68 ± 0.11 | 1.69 ± 0.11 | 1.71 ± 0.11 | 1.72 ± 0.12 | 1.73 ± 0.12 |
| Cc1cccc(C)c1 [1,3-dimethylbenzene] + COCC[N+]1(C)CCCCC1.O=S(=O)([N-]S(=O)(=O)C(F)(F)F)C(F)(F)F | 1.8 ± 0.12 | 1.81 ± 0.12 | 1.82 ± 0.12 | 1.83 ± 0.12 | 1.85 ± 0.12 | 1.86 ± 0.13 |
| Cc1ccc(C)cc1 [1,4-dimethylbenzene] + COCC[N+]1(C)CCCCC1.O=S(=O)([N-]S(=O)(=O)C(F)(F)F)C(F)(F)F | 1.08 ± 0.07 | 1.1 ± 0.07 | 1.13 ± 0.07 | 1.14 ± 0.07 | 1.16 ± 0.07 | 1.19 ± 0.08 |
| C1COCCO1 [1,4-dioxane] + COCC[N+]1(C)CCCCC1.O=S(=O)([N-]S(=O)(=O)C(F)(F)F)C(F)(F)F | 0.616 ± 0.043 | 0.636 ± 0.044 | 0.654 ± 0.045 | 0.673 ± 0.046 | 0.687 ± 0.046 | 0.705 ± 0.047 |
| C=CCCCCCCCC [1-decene] + COCC[N+]1(C)CCCCC1.O=S(=O)([N-]S(=O)(=O)C(F)(F)F)C(F)(F)F | 36.2 ± 2.5 | 33.7 ± 2.3 | 31.4 ± 2.1 | 29.2 ± 2 | 27.4 ± 1.9 | 26 ± 1.8 |
| C=CCCCCC [1-heptene] + COCC[N+]1(C)CCCCC1.O=S(=O)([N-]S(=O)(=O)C(F)(F)F)C(F)(F)F | 12.4 ± 0.8 | 11.9 ± 0.8 | 11.4 ± 0.8 | 10.8 ± 0.7 | 10.4 ± 0.7 | 9.99 ± 0.68 |
| C#CCCCCC [1-heptyne] + COCC[N+]1(C)CCCCC1.O=S(=O)([N-]S(=O)(=O)C(F)(F)F)C(F)(F)F | 4.22 ± 0.29 | 4.21 ± 0.29 | 4.19 ± 0.29 | 4.17 ± 0.28 | 4.15 ± 0.28 | 4.15 ± 0.28 |
| C#CCCCC [1-hexyne] + COCC[N+]1(C)CCCCC1.O=S(=O)([N-]S(=O)(=O)C(F)(F)F)C(F)(F)F | 2.98 ± 0.2 | 2.99 ± 0.2 | 3 ± 0.2 | 3.01 ± 0.2 | 3.02 ± 0.21 | 3.03 ± 0.21 |
| CCC[N+](=O)[O-] [1-nitropropane] + COCC[N+]1(C)CCCCC1.O=S(=O)([N-]S(=O)(=O)C(F)(F)F)C(F)(F)F | 0.724 ± 0.048 | 0.725 ± 0.048 | 0.726 ± 0.048 | 0.727 ± 0.048 | 0.727 ± 0.048 | 0.728 ± 0.048 |
| C#CCCCCCC [1-octyne] + COCC[N+]1(C)CCCCC1.O=S(=O)([N-]S(=O)(=O)C(F)(F)F)C(F)(F)F | 6.02 ± 0.41 | 5.92 ± 0.4 | 5.85 ± 0.4 | 5.77 ± 0.39 | 5.7 ± 0.39 | 5.63 ± 0.38 |
| C=CCCC [1-pentene] + COCC[N+]1(C)CCCCC1.O=S(=O)([N-]S(=O)(=O)C(F)(F)F)C(F)(F)F | 6.03 ± 0.41 | 5.9 ± 0.4 | 5.73 ± 0.39 | 5.6 ± 0.38 | 5.46 ± 0.37 | 5.36 ± 0.37 |
| CC(C)CC(C)(C)C [2,2,4-trimethylpentane] + COCC[N+]1(C)CCCCC1.O=S(=O)([N-]S(=O)(=O)C(F)(F)F)C(F)(F)F | 23.7 ± 1.1 | 22.3 ± 1 | 20.9 ± 1 | 19.7 ± 0.9 | 18.5 ± 0.9 | 17.6 ± 0.8 |
| CCC(C)(C)C [2,2-dimethylbutane] + COCC[N+]1(C)CCCCC1.O=S(=O)([N-]S(=O)(=O)C(F)(F)F)C(F)(F)F | 13.5 ± 0.6 | 12.9 ± 0.6 | 12.4 ± 0.6 | 11.8 ± 0.5 | 11.3 ± 0.5 | 10.9 ± 0.5 |
| CCOC(C)(C)C [2-ethoxy-2-methylpropane] + COCC[N+]1(C)CCCCC1.O=S(=O)([N-]S(=O)(=O)C(F)(F)F)C(F)(F)F | 5.82 ± 0.4 | 5.71 ± 0.39 | 5.62 ± 0.38 | 5.53 ± 0.38 | 5.44 ± 0.37 | 5.38 ± 0.37 |
| CCC(C)(C)OC [2-methoxy-2-methylbutane] + COCC[N+]1(C)CCCCC1.O=S(=O)([N-]S(=O)(=O)C(F)(F)F)C(F)(F)F | 3.74 ± 0.25 | 3.74 ± 0.25 | 3.73 ± 0.25 | 3.73 ± 0.25 | 3.73 ± 0.25 | 3.72 ± 0.25 |
| COC(C)(C)C [2-methoxy-2-methylpropane] + COCC[N+]1(C)CCCCC1.O=S(=O)([N-]S(=O)(=O)C(F)(F)F)C(F)(F)F | 2.56 ± 0.17 | 2.59 ± 0.18 | 2.63 ± 0.18 | 2.66 ± 0.18 | 2.69 ± 0.18 | 2.73 ± 0.19 |

| Compound | activity coefficient (318.15 K) | activity coefficient (328.15 K) | activity coefficient (338.15 K) | activity coefficient (348.15 K) | activity coefficient (358.15 K) | activity coefficient (368.15 K) |
| --- | --- | --- | --- | --- | --- | --- |
| CC(C)CO [2-methyl-1-propanol] + COCC[N+]1(C)CCCCC1.O=S(=O)([N-]S(=O)(=O)C(F)(F)F)C(F)(F)F | 2.61 ± 0.18 | 2.34 ± 0.16 | 2.12 ± 0.14 | 1.92 ± 0.13 | 1.75 ± 0.12 | 1.62 ± 0.11 |
| CC(C)(C)O [2-methylpropan-2-ol] + COCC[N+]1(C)CCCCC1.O=S(=O)([N-]S(=O)(=O)C(F)(F)F)C(F)(F)F | 1.87 ± 0.13 | 1.73 ± 0.12 | 1.61 ± 0.11 | 1.5 ± 0.1 | 1.42 ± 0.09 | 1.34 ± 0.09 |
| CCC(C)CC [3-methylpentane] + COCC[N+]1(C)CCCCC1.O=S(=O)([N-]S(=O)(=O)C(F)(F)F)C(F)(F)F | 14.7 ± 0.7 | 13.9 ± 0.6 | 13.2 ± 0.6 | 12.5 ± 0.6 | 11.9 ± 0.6 | 11.5 ± 0.5 |
| C=C(C)c1ccccc1 [(1-methylethenyl)benzene] + COCC[N+]1(C)CCCCC1.O=S(=O)([N-]S(=O)(=O)C(F)(F)F)C(F)(F)F |  | 1.61 ± 0.11 | 1.66 ± 0.11 | 1.7 ± 0.11 | 1.74 ± 0.12 | 1.78 ± 0.12 |
| CC(C)=O [acetone] + COCC[N+]1(C)CCCCC1.O=S(=O)([N-]S(=O)(=O)C(F)(F)F)C(F)(F)F | 0.462 ± 0.036 | 0.471 ± 0.037 | 0.48 ± 0.037 | 0.49 ± 0.037 | 0.498 ± 0.038 | 0.507 ± 0.038 |
| CC#N [acetonitrile] + COCC[N+]1(C)CCCCC1.O=S(=O)([N-]S(=O)(=O)C(F)(F)F)C(F)(F)F | 0.471 ± 0.037 | 0.471 ± 0.037 | 0.473 ± 0.037 | 0.473 ± 0.037 | 0.474 ± 0.037 | 0.475 ± 0.037 |
| c1ccccc1 [benzene] + COCC[N+]1(C)CCCCC1.O=S(=O)([N-]S(=O)(=O)C(F)(F)F)C(F)(F)F | 0.912 ± 0.058 | 0.922 ± 0.058 | 0.934 ± 0.059 | 0.943 ± 0.059 | 0.951 ± 0.06 | 0.961 ± 0.06 |
| CCCCO [butan-1-ol] + COCC[N+]1(C)CCCCC1.O=S(=O)([N-]S(=O)(=O)C(F)(F)F)C(F)(F)F | 2.72 ± 0.19 | 2.45 ± 0.17 | 2.22 ± 0.15 | 2.01 ± 0.14 | 1.85 ± 0.12 | 1.71 ± 0.11 |
| CCC(C)O (stereo not given) [butan-2-ol] + COCC[N+]1(C)CCCCC1.O=S(=O)([N-]S(=O)(=O)C(F)(F)F)C(F)(F)F | 2.26 ± 0.15 | 2.07 ± 0.14 | 1.89 ± 0.13 | 1.74 ± 0.12 | 1.62 ± 0.11 | 1.52 ± 0.1 |
| CCCC=O [butanal] + COCC[N+]1(C)CCCCC1.O=S(=O)([N-]S(=O)(=O)C(F)(F)F)C(F)(F)F | 0.779 ± 0.051 | 0.791 ± 0.051 | 0.805 ± 0.052 | 0.817 ± 0.053 | 0.828 ± 0.053 | 0.84 ± 0.054 |
| C1CCCCCC1 [cycloheptane] + COCC[N+]1(C)CCCCC1.O=S(=O)([N-]S(=O)(=O)C(F)(F)F)C(F)(F)F | 13.3 ± 0.6 | 12.5 ± 0.6 | 11.7 ± 0.5 | 10.9 ± 0.5 | 10.2 ± 0.5 | 9.64 ± 0.44 |
| C1CCCCC1 [cyclohexane] + COCC[N+]1(C)CCCCC1.O=S(=O)([N-]S(=O)(=O)C(F)(F)F)C(F)(F)F | 9.72 ± 0.45 | 9.23 ± 0.42 | 8.71 ± 0.4 | 8.24 ± 0.38 | 7.81 ± 0.36 | 7.48 ± 0.34 |
| C1=CCCCC1 [cyclohexene] + COCC[N+]1(C)CCCCC1.O=S(=O)([N-]S(=O)(=O)C(F)(F)F)C(F)(F)F | 5.41 ± 0.37 | 5.21 ± 0.36 | 5 ± 0.34 | 4.83 ± 0.33 | 4.67 ± 0.32 | 4.53 ± 0.31 |
| C1CCCCCCC1 [cyclooctane] + COCC[N+]1(C)CCCCC1.O=S(=O)([N-]S(=O)(=O)C(F)(F)F)C(F)(F)F | 18 ± 1.2 | 16.6 ± 1.1 | 15.4 ± 1.1 | 14.3 ± 1 | 13.2 ± 0.9 | 12.4 ± 0.8 |
| C1CCCC1 [cyclopentane] + COCC[N+]1(C)CCCCC1.O=S(=O)([N-]S(=O)(=O)C(F)(F)F)C(F)(F)F | 6.73 ± 0.31 | 6.42 ± 0.29 | 6.13 ± 0.28 | 5.86 ± 0.27 | 5.63 ± 0.26 | 5.45 ± 0.25 |
